Reference: ChEMBL document CHEMBL4043234, “Anticancer efficacy of p-dodecylaminophenol against high-risk and refractory neuroblastoma cells in vitro and in vivo” (Bioorg Med Chem Lett, 2017)
The source made the active and inactive calls. No cut-off for these calls is given here.

What was measured:
IMR-32 [1] = assay: Growth inhibition of human IMR32 cells at 0.4 uM after 72 hrs by MTT assay relative to control; assay type: functional; conditions: IMR-32, 72 h, read-out: GI
IMR-32 [2] = assay: Growth inhibition of human IMR32 cells at 0.1 uM after 72 hrs by MTT assay relative to control; assay type: functional; conditions: IMR-32, 72 h, read-out: GI
IMR-32 [3] = assay: Reduction in N-myc mRNA expression level in human IMR32 cells at 4 uM after 24 hrs by real-time PCR method relative to control; assay type: functional; set-up: scale not given: the % may be the effect or the level left
SK-N-AS [4] = assay: Cell cycle arrest in human SK-N-AS cells assessed as accumulation at sub-G1 phase at 4 uM after 24 hrs by propidium iodide staining based flow cytometry; assay type: functional
IMR-32 [5] = assay: Growth inhibition of human IMR32 cells at 0.1 uM after 24 hrs by MTT assay relative to control; assay type: functional; conditions: IMR-32, 24 h, read-out: GI
SK-N-AS [6] = assay: Growth inhibition of human SK-N-AS cells at 1 uM after 24 hrs by MTT assay relative to control; assay type: functional; conditions: read-out: GI
SK-N-AS [7] = assay: Induction of apoptosis in human SK-N-AS cells assessed as caspase-3 activity at 4 uM after 8 to 24 hrs by CPP32 based colorimetric assay; assay type: functional, cell-based
IMR-32 [8] = assay: Growth inhibition of human IMR32 cells at 0.01 uM after 72 hrs by MTT assay relative to control; assay type: functional; conditions: IMR-32, 72 h, read-out: GI
SK-N-AS [9] = assay: Growth inhibition of human SK-N-AS cells at 1 uM after 72 hrs by MTT assay relative to control; assay type: functional; conditions: read-out: GI
IMR-32 [10] = assay: Reduction in N-myc mRNA expression level in human IMR32 cells at 4 uM after 8 hrs by real-time PCR method; assay type: functional, cell-based
SK-N-AS [11] = assay: Cell cycle arrest in human SK-N-AS cells at 4 uM up to 72 hrs by propidium iodide staining based flow cytometry; assay type: functional
IMR-32 [12] = assay: Induction of apoptosis in human IMR32 cells assessed as decrease in Bcl-2 mRNA expression level at 4 uM after 24 hrs by real-time PCR method relative to control; assay type: functional; set-up: scale not given: the % may be the effect or the level left
IMR-32 [13] = assay: Induction of apoptosis in human IMR32 cells assessed as decrease in Bcl-2 mRNA expression level at 4 uM after 8 hrs by real-time PCR method; assay type: functional, cell-based
SK-N-AS [14] = assay: Cell cycle arrest in human SK-N-AS cells assessed as increase in sub-G1 phase population at 0.4 uM after 24 hrs by propidium iodide staining based flow cytometry relative to control; assay type: functional
SK-N-AS [15] = assay: Cell cycle arrest in human SK-N-AS cells assessed as accumulation at S phase at 0.4 uM after 72 hrs by propidium iodide staining based flow cytometry (reference value: 28.55 +/- 0.74%); assay type: functional
SK-N-AS [16] = assay: Cell cycle arrest in human SK-N-AS cells assessed as accumulation at S phase at 0.4 uM after 8 hrs by propidium iodide staining based flow cytometry (reference value: 28.55 +/- 0.74%); assay type: functional
SK-N-AS [17] = assay: Cell cycle arrest in human SK-N-AS cells assessed as increase in G0/G1 cell population at 0.4 uM after 72 hrs by propidium iodide staining based flow cytometry relative to control; assay type: functional
SK-N-AS [18] = assay: Induction of apoptosis in human SK-N-AS cells assessed as increase in caspase-3 activity at 4 uM after 24 hrs by CPP32 based colorimetric assay relative to control; assay type: functional
SK-N-AS [19] = assay: Induction of apoptosis in human SK-N-AS cells assessed as decrease in Bcl-2 mRNA expression level after 8 hrs by real-time PCR method; assay type: functional, cell-based
SK-N-AS [20] = assay: Cell cycle arrest in human SK-N-AS cells assessed as increase in G0/G1 cell population at 0.4 uM after 24 hrs by propidium iodide staining based flow cytometry relative to control; assay type: functional
IMR-32 [21] = assay: Reduction in N-myc mRNA expression level in human IMR32 cells at 0.4 to 4 uM after 8 hrs by real-time PCR method; assay type: functional, cell-based
SK-N-AS [22] = assay: Cell cycle arrest in human SK-N-AS cells assessed as decrease in G2/M phase population at 0.4 uM after 48 hrs by propidium iodide staining based flow cytometry relative to control; assay type: functional
SK-N-AS [23] = assay: Induction of apoptosis in human SK-N-AS cells assessed as decrease in Bcl-2 mRNA expression level at 0.4 uM after 24 hrs by real-time PCR method relative to control; assay type: functional; set-up: scale not given: the % may be the effect or the level left
SK-N-AS [24] = assay: Cell cycle arrest in human SK-N-AS cells assessed as accumulation at G2/M phase at 0.4 uM after 24 hrs by propidium iodide staining based flow cytometry (reference value: 25.31 +/- 2.89%); assay type: functional
SK-N-AS [25] = assay: Antitumor activity against human SK-N-AS cells xenografted in specific-pathogen-free KSN athymic nude mouse assessed as decrease in tumor weight at 50 mg/kg/day administered ip for 2 weeks measured on day 21 relative to control; assay type: functional; set-up: scale not given: the % may be the effect or the level left
SK-N-AS [26] = assay: Induction of apoptosis in human SK-N-AS cells assessed as increase in caspase-3 activity at 4 uM after 8 hrs by CPP32 based colorimetric assay relative to control; assay type: functional
SK-N-AS [27] = assay: Cell cycle arrest in human SK-N-AS cells assessed as accumulation at sub-G1 phase at 0.4 uM after 72 hrs by propidium iodide staining based flow cytometry (reference value: 1.13 +/- 0.13%); assay type: functional
IMR-32 [28] = assay: Induction of apoptosis in human IMR32 cells assessed as decrease in Bcl-2 mRNA expression level at 0.4 to 4 uM after 24 hrs by real-time PCR method relative to control; assay type: functional; set-up: scale not given: the % may be the effect or the level left
SK-N-AS [29] = assay: Cell cycle arrest in human SK-N-AS cells at 4 uM by propidium iodide staining based flow cytometry; assay type: functional; conditions: TDE = time-dependent effect
SK-N-AS [30] = assay: Cell cycle arrest in human SK-N-AS cells assessed as decrease in S phase population at 0.4 uM after 48 hrs by propidium iodide staining based flow cytometry relative to control; assay type: functional
SK-N-AS [31] = assay: Cell cycle arrest in human SK-N-AS cells assessed as accumulation at G2/M phase at 0.4 uM after 8 hrs by propidium iodide staining based flow cytometry (reference value: 25.31 +/- 2.89%); assay type: functional
SK-N-AS [32] = assay: Cell cycle arrest in human SK-N-AS cells assessed as accumulation at sub-G1 phase at 0.4 uM after 8 hrs by propidium iodide staining based flow cytometry (reference value: 1.13 +/- 0.13%); assay type: functional
SK-N-AS [33] = assay: Induction of apoptosis in human SK-N-AS cells assessed as decrease in Bcl-2 mRNA expression level at 4 uM after 24 hrs by real-time PCR method relative to control; assay type: functional; set-up: scale not given: the % may be the effect or the level left
SK-N-AS [34] = assay: Antitumor activity against human SK-N-AS cells xenografted in specific-pathogen-free KSN athymic nude mouse assessed as tumor growth inhibition at 12.5 mg/kg/day administered ip for 2 weeks measured on day 21 relative to control; assay type: functional; conditions: read-out: TGI
SK-N-AS [35] = assay: Induction of apoptosis in human SK-N-AS cells assessed as increase in caspase-3 activity at 4 uM by CPP32 based colorimetric assay; assay type: functional, cell-based; conditions: TDE = time-dependent effect
SK-N-AS [36] = assay: Induction of apoptosis in human SK-N-AS cells assessed as increase in caspase-3 activity at 0.4 uM after 24 hrs by CPP32 based colorimetric assay relative to control; assay type: functional
IMR-32 [37] = assay: Induction of apoptosis in human IMR32 cells assessed as decrease in Bcl-2 mRNA expression level at 0.4 to 4 uM after 8 hrs by real-time PCR method; assay type: functional, cell-based
SK-N-AS [38] = assay: Cell cycle arrest in human SK-N-AS cells assessed as decrease in S phase population at 0.4 uM after 24 hrs by propidium iodide staining based flow cytometry relative to control; assay type: functional
SK-N-AS [39] = assay: Cell cycle arrest in human SK-N-AS cells assessed as increase in G0/G1 cell population at 0.4 uM after 48 hrs by propidium iodide staining based flow cytometry relative to control; assay type: functional
Mus musculus = assay: Toxicity in specific-pathogen-free KSN athymic nude mouse xenografted with human SK-N-AS cells assessed as change in body weight at 12.5 to 50 mg/kg/day administered ip for 2 weeks measured on day 21; assay type: organism-based; conditions: in vivo, 336 h
SK-N-AS [40] = assay: Cell cycle arrest in human SK-N-AS cells assessed as accumulation at sub-G1 phase at 0.4 uM after 48 hrs by propidium iodide staining based flow cytometry (reference value: 1.13 +/- 0.13%); assay type: functional
SK-N-AS [41] = assay: Induction of apoptosis in human SK-N-AS cells assessed as increase in caspase-3 activity at 0.4 uM after 8 hrs by CPP32 based colorimetric assay relative to control; assay type: functional
SK-N-AS [42] = assay: Cell cycle arrest in human SK-N-AS cells assessed as increase in sub-G1 phase population at 4 uM after 24 hrs by propidium iodide staining based flow cytometry relative to control; assay type: functional
SK-N-AS [43] = assay: Induction of apoptosis in human SK-N-AS cells assessed as decrease in Bcl-2 mRNA expression level after 24 hrs by real-time PCR method; assay type: functional, cell-based
SK-N-AS [44] = assay: Cell cycle arrest in human SK-N-AS cells assessed as decrease in G2/M phase population at 0.4 uM after 72 hrs by propidium iodide staining based flow cytometry relative to control; assay type: functional
SK-N-AS [45] = assay: Antitumor activity against human SK-N-AS cells xenografted in specific-pathogen-free KSN athymic nude mouse assessed as tumor growth inhibition at 50 mg/kg/day administered ip for 2 weeks measured on day 21 relative to control; assay type: functional; conditions: read-out: TGI
SK-N-AS [46] = assay: Antitumor activity against human SK-N-AS cells xenografted in specific-pathogen-free KSN athymic nude mouse assessed as decrease in tumor weight at 12.5 mg/kg/day administered ip for 2 weeks measured on day 21 relative to control; assay type: functional; set-up: scale not given: the % may be the effect or the level left
SK-N-AS [47] = assay: Cell cycle arrest in human SK-N-AS cells assessed as accumulation at G0/G1 phase at 0.4 uM after 8 hrs by propidium iodide staining based flow cytometry (reference value: 46.14 +/- 3.63%); assay type: functional
SK-N-AS [48] = assay: Growth inhibition of human SK-N-AS cells at 4 uM after 24 hrs by MTT assay relative to control; assay type: functional; conditions: read-out: GI
SK-N-AS [49] = assay: Growth inhibition of human SK-N-AS cells at 4 uM after 72 hrs by MTT assay relative to control; assay type: functional; conditions: read-out: GI

CC1=C(/C=C/C(C)=C/C=C/C(C)=C/C(=O)O)C(C)(C)CCC1 [TRETINOIN]
inhibition of growth at 0.4 µM (IMR-32 [1]): 65%
inhibition of growth at 0.1 µM (IMR-32 [2]): 60%
Activity (IMR-32 [3]): 13%
Activity (SK-N-AS [4]): Active
inhibition of growth at 0.1 µM (IMR-32 [5]): 9%
inhibition of growth at 1 µM (SK-N-AS [6]): 0%
Activity (SK-N-AS [7]): inactive
inhibition of growth at 0.01 µM (IMR-32 [8]): 47%
inhibition of growth at 1 µM (SK-N-AS [9]): 3%
Activity (IMR-32 [10]): inactive
Activity (SK-N-AS [11]): Active
Activity (IMR-32 [12]): 67%
Activity (IMR-32 [13]): inactive

CCCCCCCCCCCCNc1ccc(O)cc1
fold change (FC) (SK-N-AS [14]): 3
inhibition of growth at 0.4 µM (IMR-32 [1]): 100%
inhibition of growth at 0.1 µM (IMR-32 [2]): 92%
Activity (IMR-32 [3]): 52%
Activity (SK-N-AS [15]): 28.8%
Activity (SK-N-AS [16]): 22.4%
fold change (FC) (SK-N-AS [17]): 1.17
fold change (FC) (SK-N-AS [18]): 12
Activity (SK-N-AS [19]): inactive
fold change (FC) (SK-N-AS [20]): 1.18
Activity (IMR-32 [21]): inactive
fold change (FC) (SK-N-AS [22]): 0.79
Activity (SK-N-AS [23]): 35%
Activity (SK-N-AS [24]): 24.84%
Activity (SK-N-AS [25]): 37%
fold change (FC) (SK-N-AS [26]): 3.6
inhibition of growth at 0.1 µM (IMR-32 [5]): 78%
Activity (SK-N-AS [27]): 9.78%
Activity (IMR-32 [28]): 63%
inhibition of growth at 1 µM (SK-N-AS [6]): 82%
Activity (SK-N-AS [29]): Tde
fold change (FC) (SK-N-AS [30]): 0.89
inhibition of growth at 0.01 µM (IMR-32 [8]): 15%
Activity (SK-N-AS [31]): 30.56%
Activity (SK-N-AS [32]): 1.19%
Activity (SK-N-AS [33]): 19%
inhibition of growth at 1 µM (SK-N-AS [9]): 83 to 90%
inhibition in vivo at 12.5 mg/kg/day (SK-N-AS [34]): 40%
Activity (SK-N-AS [35]): Tde
fold change (FC) (SK-N-AS [36]): 5.3
Activity (IMR-32 [37]): inactive
fold change (FC) (SK-N-AS [38]): 0.73
fold change (FC) (SK-N-AS [39]): 1.18
Activity (Mus musculus): Non-Toxic
Activity (SK-N-AS [40]): 5.57%
fold change (FC) (SK-N-AS [41]): 1.6
fold change (FC) (SK-N-AS [42]): 23
Activity (SK-N-AS [43]): Dose-dependent effect
fold change (FC) (SK-N-AS [44]): 0.68
inhibition in vivo at 50 mg/kg/day (SK-N-AS [45]): 58%
Activity (SK-N-AS [46]): 33%
Activity (SK-N-AS [47]): 47.04%

CCCCCCCCCCCC(=O)Nc1ccc(O)cc1
inhibition of growth at 4 µM (SK-N-AS [48]): 22%
inhibition of growth at 4 µM (SK-N-AS [49]): 24%
